# Assay results taken from ChEMBL document CHEMBL1201862, “PubChem BioAssay data set” (2004).
# Calls of active or inactive are those of the source.
# Columns and labels:
# Streptokinase A = target: T1, Streptokinase A (Streptococcus pyogenes serotype M1, UniProt P10520); experiment: S. pyogenes streptokinase expression inhibitors, potency, dose response, plasminogen activation absorbance, OD405 (AID 1914); format: functional, Streptococcus pyogenes M1 GAS;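 note: secreted streptokinase activity via plasminogen activation per viability signal from cell pellet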
# T1 sequence (P10520 whole entry): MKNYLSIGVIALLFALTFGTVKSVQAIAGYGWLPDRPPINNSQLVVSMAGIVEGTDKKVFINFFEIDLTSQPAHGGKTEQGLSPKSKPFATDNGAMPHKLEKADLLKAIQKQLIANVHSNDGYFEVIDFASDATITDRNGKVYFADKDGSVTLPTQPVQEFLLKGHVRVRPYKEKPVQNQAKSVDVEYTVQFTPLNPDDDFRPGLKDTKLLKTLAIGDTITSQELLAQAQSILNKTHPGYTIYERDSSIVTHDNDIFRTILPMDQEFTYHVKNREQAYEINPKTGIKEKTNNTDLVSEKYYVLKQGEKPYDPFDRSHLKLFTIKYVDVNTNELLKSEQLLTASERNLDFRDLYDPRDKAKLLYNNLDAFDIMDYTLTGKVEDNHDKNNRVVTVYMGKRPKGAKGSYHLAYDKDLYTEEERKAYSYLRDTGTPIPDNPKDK
# [1] = growth suppression of beta-catenin-knockout colon cells, dose response, cell-based, HCT116, human colon tumor (AID 1045); format: functional;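 note: HCT116 colon tumor cells with beta catenin knocked out; cells exposed to compound for 60 hours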
# Streptococcus = experiment: Group A Streptococcus viability loss, dose response, counter-screen for streptokinase expression inhibitor project, luminescence, BacTiterGlo (AID 1915); format: functional, organism-based;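 note: potency for reduction of bacterial viability or growth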
# [2] = tested on: Streptococcus sp. 'group A'; experiment: growth inhibition of control SK(-) GAS strain, dose response, counter-screen for streptokinase expression inhibitor project, luminescence, kanamycin, BacTiterGlo, confirmation (AID 1900); format: functional, organism-based
# [3] = decrease of PhoP-driven GFP reporter signal, S. Typhimurium, dose response, PhoP regulon inhibitor project, purified and synthesized compounds, set 2 (AID 2831); format: functional
# [4] = growth suppression of PTEN-null colon cells, dose response, cell-based, HCT116 PTEN knockout (AID 1047); format: functional;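 note: HCT116 colon tumor cells with PTEN knocked out; cells exposed to compound for 60 hours before readout; potency for loss of cell viability measured by luminescence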
# [5] = Luminescence Cell-Based Dose Retest to Confirm Inhibitors of Cancer Stem Cells. [Related pubchem assays (depositor defined):AID2717, AID2721]; format: functional; settings: Homo sapiens
# Hexokinase-1 = target: T2, Hexokinase-1 (Homo sapiens, UniProt P19367); experiment: hexokinase 1 activators, dose response, selectivity assay for HKDC1 activator project, biochemical (AID 504762); format: functional
# T2 sequence (P19367 whole entry): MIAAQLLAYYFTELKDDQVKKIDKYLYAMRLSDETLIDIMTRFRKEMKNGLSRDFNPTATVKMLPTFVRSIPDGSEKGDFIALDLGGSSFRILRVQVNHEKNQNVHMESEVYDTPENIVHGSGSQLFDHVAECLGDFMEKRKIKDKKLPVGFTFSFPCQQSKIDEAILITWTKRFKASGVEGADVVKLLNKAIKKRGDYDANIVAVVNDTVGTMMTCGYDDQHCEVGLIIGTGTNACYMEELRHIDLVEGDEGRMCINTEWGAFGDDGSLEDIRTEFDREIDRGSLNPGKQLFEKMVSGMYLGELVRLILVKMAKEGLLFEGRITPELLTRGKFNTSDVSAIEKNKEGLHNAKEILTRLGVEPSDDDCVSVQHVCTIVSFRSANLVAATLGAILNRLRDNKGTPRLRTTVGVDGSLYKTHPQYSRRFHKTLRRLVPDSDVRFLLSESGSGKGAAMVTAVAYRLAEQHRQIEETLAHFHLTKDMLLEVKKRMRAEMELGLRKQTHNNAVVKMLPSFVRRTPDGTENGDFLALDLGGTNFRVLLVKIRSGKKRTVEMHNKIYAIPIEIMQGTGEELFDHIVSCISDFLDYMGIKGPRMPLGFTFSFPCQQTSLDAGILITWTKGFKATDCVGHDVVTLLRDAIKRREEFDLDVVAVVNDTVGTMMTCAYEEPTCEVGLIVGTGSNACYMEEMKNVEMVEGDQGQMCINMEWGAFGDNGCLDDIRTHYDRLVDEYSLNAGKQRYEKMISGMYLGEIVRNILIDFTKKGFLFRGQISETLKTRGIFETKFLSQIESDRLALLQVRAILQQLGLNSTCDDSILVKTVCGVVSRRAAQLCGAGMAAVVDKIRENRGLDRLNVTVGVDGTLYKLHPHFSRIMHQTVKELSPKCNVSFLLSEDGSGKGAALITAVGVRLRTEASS
# Hexokinase HKDC1 = target: T3, Hexokinase HKDC1 (Homo sapiens, UniProt Q2TB90); experiment: HKDC1 hexokinase activators, dose response, biochemical, W721R variant (AID 504730); format: functional
# T3 sequence (Q2TB90 whole entry): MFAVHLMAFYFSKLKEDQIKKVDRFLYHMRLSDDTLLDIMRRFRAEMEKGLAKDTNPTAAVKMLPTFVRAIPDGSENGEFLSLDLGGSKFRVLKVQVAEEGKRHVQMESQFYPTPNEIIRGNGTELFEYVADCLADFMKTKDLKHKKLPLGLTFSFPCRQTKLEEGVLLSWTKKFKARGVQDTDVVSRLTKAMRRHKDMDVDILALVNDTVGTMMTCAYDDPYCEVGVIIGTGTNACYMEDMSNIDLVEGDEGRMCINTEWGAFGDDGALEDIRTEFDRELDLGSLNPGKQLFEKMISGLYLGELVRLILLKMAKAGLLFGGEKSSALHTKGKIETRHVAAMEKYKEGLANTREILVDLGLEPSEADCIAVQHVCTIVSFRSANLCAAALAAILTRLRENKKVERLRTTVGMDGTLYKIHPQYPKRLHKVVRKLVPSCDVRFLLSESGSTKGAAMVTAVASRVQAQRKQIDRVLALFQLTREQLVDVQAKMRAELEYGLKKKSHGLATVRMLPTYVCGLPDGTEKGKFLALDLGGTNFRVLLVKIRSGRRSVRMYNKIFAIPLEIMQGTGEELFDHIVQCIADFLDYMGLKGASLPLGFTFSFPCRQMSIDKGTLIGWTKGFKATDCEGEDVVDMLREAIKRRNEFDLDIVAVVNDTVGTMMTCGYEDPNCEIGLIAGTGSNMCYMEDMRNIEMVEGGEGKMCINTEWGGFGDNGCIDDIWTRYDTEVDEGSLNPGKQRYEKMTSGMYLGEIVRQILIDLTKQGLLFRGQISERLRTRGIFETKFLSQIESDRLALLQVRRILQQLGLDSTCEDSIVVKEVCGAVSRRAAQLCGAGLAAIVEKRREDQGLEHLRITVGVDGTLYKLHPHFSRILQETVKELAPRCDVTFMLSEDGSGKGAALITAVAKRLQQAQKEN
# [6] = target: T4, Tyrosine-protein phosphatase non-receptor type 22 (Homo sapiens, UniProt Q9Y2R2); experiment: SAR LYP1 Fluorescent Assay using OMFP substrate for In Vitro dose response studies - Set 2. [Related pubchem assays (depositor defined):AID1779, AID1784, AID2140, AID449726, AID488869]; format: functional
# T4 sequence (Q9Y2R2 whole entry): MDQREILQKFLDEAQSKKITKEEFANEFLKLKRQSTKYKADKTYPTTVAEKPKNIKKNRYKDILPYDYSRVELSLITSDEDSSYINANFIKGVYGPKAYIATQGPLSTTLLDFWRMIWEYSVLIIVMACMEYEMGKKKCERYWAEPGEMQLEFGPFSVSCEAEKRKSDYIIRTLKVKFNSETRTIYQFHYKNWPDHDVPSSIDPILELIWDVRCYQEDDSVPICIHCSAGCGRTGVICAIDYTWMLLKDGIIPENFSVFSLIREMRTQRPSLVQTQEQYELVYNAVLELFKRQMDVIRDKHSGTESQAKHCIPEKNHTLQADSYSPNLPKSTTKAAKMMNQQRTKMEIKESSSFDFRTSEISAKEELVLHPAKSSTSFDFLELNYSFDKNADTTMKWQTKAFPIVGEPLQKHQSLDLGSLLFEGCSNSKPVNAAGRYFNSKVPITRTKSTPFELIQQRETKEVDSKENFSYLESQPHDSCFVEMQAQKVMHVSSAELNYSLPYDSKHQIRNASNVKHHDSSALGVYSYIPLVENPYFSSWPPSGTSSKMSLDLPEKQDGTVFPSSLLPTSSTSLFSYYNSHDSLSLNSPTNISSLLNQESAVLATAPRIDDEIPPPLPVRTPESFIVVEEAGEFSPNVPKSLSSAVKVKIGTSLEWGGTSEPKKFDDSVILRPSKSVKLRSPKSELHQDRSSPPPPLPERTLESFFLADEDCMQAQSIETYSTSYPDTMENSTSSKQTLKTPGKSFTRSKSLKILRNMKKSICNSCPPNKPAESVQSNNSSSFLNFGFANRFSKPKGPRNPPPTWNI
# [7] = target: T4, Tyrosine-protein phosphatase non-receptor type 22; experiment: SAR LYP1 Fluorescent Assay using pCAP substrate for In Vitro dose response studies - Set 2. [Related pubchem assays (depositor defined):AID1779, AID1784, AID2135, AID449727]; format: functional
# [8] = target: T5, Tyrosine-protein phosphatase non-receptor type 7 (Homo sapiens, UniProt P35236); experiment: HePTP (PTPN7) phosphatase inhibitor potency, SAR follow-up, biochemical, set 2 (AID 449736); format: functional
# T5 sequence (P35236 whole entry): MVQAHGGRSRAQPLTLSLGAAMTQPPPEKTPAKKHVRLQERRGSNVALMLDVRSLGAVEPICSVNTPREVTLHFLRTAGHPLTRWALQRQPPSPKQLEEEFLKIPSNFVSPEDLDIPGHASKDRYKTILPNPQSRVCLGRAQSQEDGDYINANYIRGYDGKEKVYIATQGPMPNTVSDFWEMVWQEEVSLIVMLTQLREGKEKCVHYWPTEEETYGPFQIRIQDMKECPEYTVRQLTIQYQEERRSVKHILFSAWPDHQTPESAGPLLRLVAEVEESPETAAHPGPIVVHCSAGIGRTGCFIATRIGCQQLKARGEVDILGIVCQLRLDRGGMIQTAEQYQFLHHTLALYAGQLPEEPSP
# [9] = target: T4, Tyrosine-protein phosphatase non-receptor type 22; experiment: SAR LYP1 Fluorescent Assay using OMFP substrate for In Vitro dose response studies - Set 3. [Related pubchem assays (depositor defined):AID1779, AID1784, AID2140, AID2686]; format: functional
# [10] = target: Tyrosine-protein phosphatase non-receptor type 12 (Homo sapiens, UniProt Q05209); experiment: SAR Selectivity Analysis of small molecule inhibitors of PEST using pCAP in a fluorescence assay. [Related pubchem assays (depositor defined):AID1779, AID1784, AID2135]; format: functional
# [11] = target: G-protein coupled receptor 55 (Homo sapiens, UniProt Q9Y2T6); experiment: SAR Analysis of Selective Antagonists of GPR55 using an Image-Based Assay - Set 4. [Related pubchem assays (depositor defined):AID2013, AID2026]; format: functional;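 note: antagonism of response to 5 µM lysophosphatidylinositol agonist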
# [12] = target: T6, G-protein coupled receptor 35 (Homo sapiens, UniProt Q9HC97); experiment: SAR analysis of Agonists of the GPR35 Receptor using an Image-Based Assay - Set 4. [Related pubchem assays (depositor defined):AID2013, AID2026]; format: functional
# Cannabinoid receptor 2 [13] = target: T7, Cannabinoid receptor 2 (Homo sapiens, UniProt P34972); experiment: SAR analysis of antagonists of the Cannabinoid Receptor 2 using an Image-Based Assay - Set 3. [Related pubchem assays (depositor defined):AID2013, AID2026]; format: functional
# Cannabinoid receptor 2 [14] = target: T7, Cannabinoid receptor 2; experiment: SAR analysis of agonists of the Cannabinoid Receptor 2 using an Image-Based Assay - Set 3. [Related pubchem assays (depositor defined):AID2013, AID2026]; format: functional
# Cannabinoid receptor 1 [15] = target: T8, Cannabinoid receptor 1 (Homo sapiens, UniProt P21554); experiment: SAR analysis of agonists of the Cannabinoid Receptor 1 using an Image-Based Assay - Set 4. [Related pubchem assays (depositor defined):AID2013, AID2026]; format: functional
# Cannabinoid receptor 1 [16] = target: T8, Cannabinoid receptor 1; experiment: SAR analysis of antagonists of the Cannabinoid Receptor 1 using an Image-Based Assay - Set 4. [Related pubchem assays (depositor defined):AID2013, AID2026]; format: functional
# [17] = target: T6, G-protein coupled receptor 35; experiment: SAR analysis of Antagonists of the GPR35 Receptor using an Image-Based Assay - Set 6. [Related pubchem assays (depositor defined):AID2013, AID2026]; format: functional
# [18] = target: Kappa-type opioid receptor (Homo sapiens, UniProt P41145); experiment: SAR analysis of small molecule agonists of the kappa opioid receptor via a luminescent beta-arrestin assay - Set 3. [Related pubchem assays (depositor defined):AID1777, AID1785, AID1786, AID1966, AID2133, AID2136, AID2284, AID2500]; format: functional
# 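Throughout, for AC50: cells exposed to compound for roughly 70 hours or longer before luminescence read.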
# T6 sequence (Q9HC97 whole entry): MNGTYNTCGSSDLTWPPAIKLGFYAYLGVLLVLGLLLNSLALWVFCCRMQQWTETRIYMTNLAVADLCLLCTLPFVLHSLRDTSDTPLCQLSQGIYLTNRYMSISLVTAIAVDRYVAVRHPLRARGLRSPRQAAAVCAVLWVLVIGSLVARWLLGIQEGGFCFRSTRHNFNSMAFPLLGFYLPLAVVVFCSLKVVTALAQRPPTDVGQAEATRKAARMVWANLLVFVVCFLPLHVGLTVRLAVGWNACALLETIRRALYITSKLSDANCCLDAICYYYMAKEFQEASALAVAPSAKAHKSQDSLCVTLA
# T7 sequence (P34972 whole entry): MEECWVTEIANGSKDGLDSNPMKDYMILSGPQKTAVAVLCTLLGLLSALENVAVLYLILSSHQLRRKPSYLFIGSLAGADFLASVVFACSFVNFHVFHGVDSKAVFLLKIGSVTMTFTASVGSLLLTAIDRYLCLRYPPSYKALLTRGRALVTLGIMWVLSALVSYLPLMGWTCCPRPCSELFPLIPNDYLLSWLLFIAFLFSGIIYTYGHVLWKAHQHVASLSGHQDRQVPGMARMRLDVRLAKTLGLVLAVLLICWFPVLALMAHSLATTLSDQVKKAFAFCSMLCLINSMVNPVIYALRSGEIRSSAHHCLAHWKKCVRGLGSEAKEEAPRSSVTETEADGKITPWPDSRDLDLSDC
# T8 sequence (P21554 whole entry): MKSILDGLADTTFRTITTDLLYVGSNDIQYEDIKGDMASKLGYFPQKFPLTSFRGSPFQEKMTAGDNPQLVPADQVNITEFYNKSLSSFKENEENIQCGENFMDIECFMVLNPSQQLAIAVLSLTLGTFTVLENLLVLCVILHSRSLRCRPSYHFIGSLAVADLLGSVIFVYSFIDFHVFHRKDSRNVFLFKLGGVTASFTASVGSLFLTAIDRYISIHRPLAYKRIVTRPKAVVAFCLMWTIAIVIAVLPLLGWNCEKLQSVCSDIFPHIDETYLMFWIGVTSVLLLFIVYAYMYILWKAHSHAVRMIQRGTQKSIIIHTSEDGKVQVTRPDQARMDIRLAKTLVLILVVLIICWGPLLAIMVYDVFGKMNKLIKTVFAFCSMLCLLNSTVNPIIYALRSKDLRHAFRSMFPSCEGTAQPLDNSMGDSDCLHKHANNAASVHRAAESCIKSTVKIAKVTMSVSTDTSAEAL
# Kappa-type opioid receptor, sequence (P41145 whole entry): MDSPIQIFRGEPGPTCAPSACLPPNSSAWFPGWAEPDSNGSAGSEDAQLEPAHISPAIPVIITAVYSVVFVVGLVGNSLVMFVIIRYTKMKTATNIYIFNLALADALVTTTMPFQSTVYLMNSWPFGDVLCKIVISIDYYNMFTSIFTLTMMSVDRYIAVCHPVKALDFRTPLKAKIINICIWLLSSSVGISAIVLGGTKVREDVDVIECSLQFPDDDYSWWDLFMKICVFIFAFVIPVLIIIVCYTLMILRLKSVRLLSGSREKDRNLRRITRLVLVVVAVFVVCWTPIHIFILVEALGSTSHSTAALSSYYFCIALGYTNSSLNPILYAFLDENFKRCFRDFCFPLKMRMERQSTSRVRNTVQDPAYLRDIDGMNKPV
# Tyrosine-protein phosphatase non-receptor type 12, sequence (Q05209 whole entry): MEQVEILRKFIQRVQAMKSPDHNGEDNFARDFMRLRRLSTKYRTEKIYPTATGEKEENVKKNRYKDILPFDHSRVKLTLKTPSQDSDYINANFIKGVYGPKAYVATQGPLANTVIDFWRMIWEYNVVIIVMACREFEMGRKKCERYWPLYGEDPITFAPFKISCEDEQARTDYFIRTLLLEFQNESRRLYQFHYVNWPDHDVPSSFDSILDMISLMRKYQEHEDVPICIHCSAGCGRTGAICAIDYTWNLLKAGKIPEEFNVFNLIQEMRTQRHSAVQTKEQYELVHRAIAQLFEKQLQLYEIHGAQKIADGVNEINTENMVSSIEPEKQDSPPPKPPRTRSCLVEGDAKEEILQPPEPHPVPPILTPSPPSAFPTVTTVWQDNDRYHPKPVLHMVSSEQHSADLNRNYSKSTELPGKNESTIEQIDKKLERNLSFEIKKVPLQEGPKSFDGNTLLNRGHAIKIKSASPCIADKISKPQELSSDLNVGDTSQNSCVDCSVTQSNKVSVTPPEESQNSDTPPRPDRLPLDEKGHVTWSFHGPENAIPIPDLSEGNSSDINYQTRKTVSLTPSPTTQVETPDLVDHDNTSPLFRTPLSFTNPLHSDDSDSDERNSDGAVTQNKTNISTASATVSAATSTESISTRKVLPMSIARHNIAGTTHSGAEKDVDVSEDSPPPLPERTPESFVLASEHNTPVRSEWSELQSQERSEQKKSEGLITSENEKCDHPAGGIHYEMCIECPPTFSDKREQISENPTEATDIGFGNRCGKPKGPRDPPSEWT
# G-protein coupled receptor 55, sequence (Q9Y2T6 whole entry): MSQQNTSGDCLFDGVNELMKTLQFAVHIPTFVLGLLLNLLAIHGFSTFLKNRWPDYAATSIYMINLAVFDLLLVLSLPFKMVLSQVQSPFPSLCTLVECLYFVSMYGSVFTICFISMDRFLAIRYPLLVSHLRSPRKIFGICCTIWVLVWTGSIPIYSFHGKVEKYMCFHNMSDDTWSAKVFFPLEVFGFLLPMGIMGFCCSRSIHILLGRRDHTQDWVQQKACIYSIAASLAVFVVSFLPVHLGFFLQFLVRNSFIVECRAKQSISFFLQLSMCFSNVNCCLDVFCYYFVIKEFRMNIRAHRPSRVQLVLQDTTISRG
smiles,measurement,setting,value
CN1CCN(C2=Cc3cc(Cl)ccc3Sc3cc(F)ccc32)CC1,EC50,Streptokinase A,> 150 µM (not active)
same,EC50,[1],10.5 µM (active)
same,EC50,Streptococcus,12 µM (active)
same,EC50,[2],7.44 µM (active)
same,IC50,[3],> 125 µM (active)
same,EC50,[4],9.39 µM (active)
same,AC50,[5],6.63 µM (active)
CCOC(=O)c1c(C)[nH]c(C2=NN=C(Nc3ccccc3OC)SC2)c1C,EC50,Hexokinase-1,15.3 µM (active)
same,EC50,Hexokinase HKDC1,15 µM (active)
COc1cc(/C=C(\C#N)C(=O)Nc2cccc(C(=O)O)c2)ccc1OCc1ccc(C)cc1,IC50,[6],14.7 µM (active)
same,IC50,[7],22.1 µM (active)
same,IC50,[8],2.02 µM (active)
same,IC50,[9],5.39 µM (active)
same,IC50,[10],2.69 µM (active)
N=c1c(C(=O)NCc2ccco2)cc2c(=O)n3ccccc3nc2n1C1CCCC1,IC50,[11],28.3 µM (inactive)
same,EC50,[12],> 32 µM (inactive)
same,IC50,Cannabinoid receptor 2 [13],> 32 µM (inactive)
same,EC50,Cannabinoid receptor 2 [14],2.13 µM (active)
same,EC50,Cannabinoid receptor 1 [15],> 32 µM (inactive)
same,IC50,Cannabinoid receptor 1 [16],31.5 µM (inactive)
same,IC50,[17],> 32 µM (inactive)
FC(F)(F)c1cc(CSc2nnc(-c3ccccn3)n2Cc2ccccc2)ccc1Cl,EC50,[18],2.22 µM (active)
